Patent US4486586A, “Cephalosporin derivatives” (Bristol-Myers Company, priority 1983, dated 1984)
In brackets after ≈: the same amount, converted by molar mass.

How the values were obtained:
[1] = tested on: Penicillinsensitive S. aureus; assay: MIC, two-fold serial agar dilution in Mueller-Hinton agar, group (G+)-Ia; format: cell-based; settings: Staphylococcus aureus, penicillin-sensitive S. aureus, 5 strains, read-out: Geometric Mean of MIC, (G+)-Ia
Experimental: (§1) In the primary evaluation of the compounds of this invention, the Minimum Inhibitory Concentrations (MIC's) of the compounds were determined by the two-fold serial agar dilution method in Mueller-Hinton agar against 32 strains of test organisms in six groups.

[2] = tested on: Penicillinresistant S. aureus; assay: MIC, two-fold serial agar dilution in Mueller-Hinton agar, group (G+)-Ib; format: cell-based; settings: Staphylococcus aureus, penicillin-resistant S. aureus, 5 strains, read-out: Geometric Mean of MIC, (G+)-Ib
Experimental: as §1
(G+)Ib: Penicillinresistant S. aureus (5

[3] = tested on: Cephalothinsensitive E. coli, Kl. pneumoniae and Pr. mirabilis; assay: MIC, two-fold serial agar dilution in Mueller-Hinton agar, group (G-)-Ia; format: cell-based; settings: cephalothin-sensitive E. coli, 5 strains, read-out: Geometric Mean of MIC, (G-)-Ia
Experimental: as §1
(G-)Ia: Cephalothinsensitive E. coli (2 strains), Kl. pneumoniae (1
strain) and Pr. mirabilis (2 strains)

[4] = tested on: Cephalothinresistant E. coli and Kl. pneumoniae; assay: MIC, two-fold serial agar dilution in Mueller-Hinton agar, group (G-)-Ib; format: cell-based, E. coli (3 strains) and Kl. pneumoniae (3 strains); settings: read-out: Geometric Mean of MIC, (G-)-Ib
Experimental: as §1
(G-)Ib: Cephalothinresistant E. coli (3 strains) and Kl. pneumoniae (3

[5] = tested on: M. morganii, Ent. cloacae and Ser. marcescens; assay: MIC, two-fold serial agar dilution in Mueller-Hinton agar, group (G-)-II; format: cell-based; settings: 5 strains, read-out: Geometric Mean of MIC, (G-)-II
Experimental: as §1
(G-)II: M. morganii (1 strain), Ent. cloacae (2 strains) andSer.

[6] = tested on: Ps. aeruginosa; assay: MIC, two-fold serial agar dilution in Mueller-Hinton agar, group (G-)-III; format: cell-based; settings: Pseudomonas aeruginosa, 7 strains, read-out: Geometric Mean of MIC, (G-)-III
Experimental: as §1
(G-)III: Ps. aeruginosa (7 strains)

Work on `CO/N=C(\C(=O)NC1C(=O)N2C(C(=O)[O-])=C(/C=C/C[N+]3(C)CCCC3)CS[C@H]12)c1csc(N)n1` (stereo partly shown) [Compound I-1A, 7-[(Z)-2-(2-Aminothiazol-4-yl)-2-methoxyiminoacetamido]-3-[(E)-3-(1-methylpyrrolidinio)-1-propen-1-yl]-3-cephem-4-carboxylate] yielded an MIC [1] of 0.22 µg/mL (≈ 0.434 µM), an MIC [2] of 0.59 µg/mL (≈ 1.16 µM) and an MIC [3] of 0.021 µg/mL (≈ 0.0415 µM). It also gave an MIC [4] of 0.11 µg/mL (≈ 0.217 µM), an MIC [5] of 0.13 µg/mL (≈ 0.257 µM) and an MIC [6] of 5.1 µg/mL (≈ 10.1 µM).
For `CO/N=C(\C(=O)NC1C(=O)N2C(C(=O)[O-])=C(/C=C/C[n+]3ccccc3)CS[C@H]12)c1csc(N)n1` (stereo partly shown) [Compound I-1B, 7-[(Z)-2-(2-Aminothiazol-4-yl)-2-methoxyiminoacetamido]-3-[(E)-3-pyridinio-1-propen-1-yl]-3-cephem-4-carboxylate], the MIC [1] was 0.2 µg/mL (≈ 0.4 µM), the MIC [2] was 0.52 µg/mL (≈ 1.04 µM) and the MIC [3] was 0.012 µg/mL (≈ 0.024 µM). For the same compound, the MIC [4] was 0.05 µg/mL (≈ 0.0999 µM), the MIC [5] was 0.1 µg/mL (≈ 0.2 µM) and the MIC [6] was 5.7 µg/mL (≈ 11.4 µM).
Compound `CO/N=C(\C(=O)NC1C(=O)N2C(C(=O)[O-])=C(/C=C/C[N+](C)(C)C)CS[C@H]12)c1csc(N)n1` (stereo partly shown) [Compound I-1D, 7-[(Z)-2-(2-Aminothiazol-4-yl)-2-methoxyiminoacetamido]-3-[(E)-3-trimethylammonio-1-propen-1-yl]-3-cephem-4-carboxylate] has an MIC [1] of 0.17 µg/mL (≈ 0.354 µM), an MIC [2] of 0.59 µg/mL (≈ 1.23 µM) and an MIC [3] of 0.0093 µg/mL (≈ 0.0194 µM). The MIC [4] was 0.074 µg/mL (≈ 0.154 µM), the MIC [5] was 0.1 µg/mL (≈ 0.208 µM) and the MIC [6] was 3.1 µg/mL (≈ 6.45 µM).
In the case of `CO/N=C(\C(=O)NC1C(=O)N2C(C(=O)[O-])=C(/C=C/C[n+]3cccc(N)c3)CS[C@H]12)c1csc(N)n1` (stereo partly shown) [Compound I-1E, 7-[(Z)-2-(2-Aminothiazol-4-yl)-2-methoxyiminoacetamido]-3-[(E)-3-(3-aminopyridinio)-1-propen-1-yl]-3-cephem-4-carboxylate], the MIC [1] is reported as 0.1 µg/mL (≈ 0.194 µM), the MIC [2] is reported as 0.3 µg/mL (≈ 0.582 µM) and the MIC [3] is reported as less than 0.0053 µg/mL. The MIC [4] was 0.05 µg/mL (≈ 0.097 µM), the MIC [5] was 0.043 µg/mL (≈ 0.0834 µM) and the MIC [6] was 5.7 µg/mL (≈ 11.1 µM).
For `CO/N=C(\C(=O)NC1C(=O)N2C(C(=O)[O-])=C(/C=C/C[N+]3(C)CC=CC3)CS[C@H]12)c1csc(N)n1` (stereo partly shown) [Compound I-1F, 7-[(Z)-2-(2-Aminothiazol-4-yl)-2-methoxyiminoacetamido]-3-[(E)-3-(1-methyl-3-pyrrolinio)-1-propen-1-yl]-3-cephem-4-carboxylate], the MIC [1] was 0.15 µg/mL (≈ 0.297 µM), the MIC [2] was 0.39 µg/mL (≈ 0.773 µM) and the MIC [3] was 0.014 µg/mL (≈ 0.0277 µM). The MIC [4] was 0.074 µg/mL (≈ 0.147 µM), the MIC [5] was 0.1 µg/mL (≈ 0.198 µM) and the MIC [6] was 3.1 µg/mL (≈ 6.14 µM).
With `CO/N=C(\C(=O)NC1C(=O)N2C(C(=O)[O-])=C(/C=C/C[n+]3ccsc3SC)CS[C@H]12)c1csc(N)n1` (stereo partly shown) [Compound I-1G, 7-[(Z)-2-(2-Aminothiazol-4yl)-2-methoxyiminoacetamido]-3-[(E)-3-(2-methylthio-3-thiazolio)-1-propen-1-yl]-3-cephem-4-carboxylate] the MIC [1] was 0.15 µg/mL (≈ 0.271 µM), the MIC [2] was 0.39 µg/mL (≈ 0.706 µM) and the MIC [3] was 0.014 µg/mL (≈ 0.0253 µM). For the same compound, the MIC [4] was 0.074 µg/mL (≈ 0.134 µM), the MIC [5] was 0.085 µg/mL (≈ 0.154 µM) and the MIC [6] was 7.6 µg/mL (≈ 13.8 µM).
`CO/N=C(\C(=O)NC1C(=O)N2C(C(=O)[O-])=C(/C=C/C[n+]3ccsc3C)CS[C@H]12)c1csc(N)n1` (stereo partly shown) [Compound I-1H, 7-[(Z)-2-(2-Aminothiazol-4-yl)-2-methoxyiminoacetamido]-3-[(E)-3-(2-methyl-3-thiazolio)-1-propen-1-yl]-3-cephem-4-carboxylate] showed an MIC [1] of 0.1 µg/mL (≈ 0.192 µM), an MIC [2] of 0.3 µg/mL (≈ 0.576 µM) and an MIC [3] of 0.0093 µg/mL (≈ 0.0179 µM). The MIC [4] was 0.05 µg/mL (≈ 0.096 µM), the MIC [5] was 0.074 µg/mL (≈ 0.142 µM) and the MIC [6] was 5.7 µg/mL (≈ 10.9 µM).
`CO/N=C(\C(=O)NC1C(=O)N2C(C(=O)[O-])=C(/C=C/C[n+]3ccc(N)cc3)CS[C@H]12)c1csc(N)n1` (stereo partly shown) [Compound I-1I, 7-[(Z)-2-(2-Aminothiazol-4-yl)-2-methoxyiminoacetamido]-3-[(E)-3-(4-amino-1-pyridinio)-1-propen-1-yl]-3-cephem-4-carboxylate] gave an MIC [1] of 0.11 µg/mL (≈ 0.213 µM), an MIC [2] of 0.34 µg/mL (≈ 0.659 µM) and an MIC [3] of less than 0.016 µg/mL. For the same compound, the MIC [4] was 0.1 µg/mL (≈ 0.194 µM), the MIC [5] was 0.15 µg/mL (≈ 0.291 µM) and the MIC [6] was greater than 25 µg/mL.
For `CO/N=C(\C(=O)NC1C(=O)N2C(C(=O)[O-])=C(/C=C/C[n+]3ccc(C(N)=O)cc3)CS[C@H]12)c1csc(N)n1` (stereo partly shown) [Compound I-1J, 7-[(Z)-2-(2-Aminothiazol-4-yl)-2-methoxyiminoacetamido]-3-[(E)-3-(4-carbamoyl-1-pyridinio)-1-propen-1-yl]-3-cephem-4-carboxylate], the MIC [1] was 0.26 µg/mL (≈ 0.478 µM), the MIC [2] was 0.61 µg/mL (≈ 1.12 µM) and the MIC [3] was 0.016 µg/mL (≈ 0.0294 µM). The MIC [4] was 0.11 µg/mL (≈ 0.202 µM), the MIC [5] was 0.13 µg/mL (≈ 0.239 µM) and the MIC [6] was 5.7 µg/mL (≈ 10.5 µM).
Compound `CC(C)(O/N=C(\C(=O)NC1C(=O)N2C(C(=O)[O-])=C(/C=C/C[N+]3(C)CCCC3)CS[C@H]12)c1csc(N)n1)C(=O)O` (stereo partly shown) [Compound I-4A, 7-[(Z)-2-(2-Aminothiazol-4-yl)-2-(2-carboxy-2-propoxyimino)acetamido]-3-[(E)-3-(1-methylpyrrolidinio)-1-propen-1-yl]-3-cephem-4-carboxylate] has an MIC [1] of 2.3 µg/mL (≈ 3.97 µM), an MIC [2] of 4.1 µg/mL (≈ 7.09 µM) and an MIC [3] of 0.036 µg/mL (≈ 0.0622 µM). For the same compound, the MIC [4] was 0.2 µg/mL (≈ 0.346 µM), the MIC [5] was 0.17 µg/mL (≈ 0.294 µM) and the MIC [6] was 2.3 µg/mL (≈ 3.97 µM).
Compound `CC(C)(O/N=C(\C(=O)NC1C(=O)N2C(C(=O)[O-])=C(/C=C/C[n+]3ccccc3)CS[C@H]12)c1csc(N)n1)C(=O)O` (stereo partly shown) [Compound I-4B, 7-[(Z)-2-(2-Aminothiazol-4-yl)-2-(2-carboxy-2-propoxyimino)acetamido]-3-[(E)-3-pyridinio-1-propen-1-yl]-3-cephem-4-carboxylate] has an MIC [1] of 6 µg/mL (≈ 10.5 µM), an MIC [2] of 15 µg/mL (≈ 26.2 µM) and an MIC [3] of 0.046 µg/mL (≈ 0.0803 µM). For the same compound, the MIC [4] was 0.37 µg/mL (≈ 0.646 µM), the MIC [5] was 0.41 µg/mL (≈ 0.716 µM) and the MIC [6] was 5 µg/mL (≈ 8.73 µM).
`CSc1scc[n+]1C/C=C/C1=C(C(=O)[O-])N2C(=O)C(NC(=O)/C(=N\OC(C)(C)C(=O)O)c3csc(N)n3)[C@H]2SC1` (stereo partly shown) [Compound I-4G, 7-[(Z)-2-(2-Aminothiazol-4-yl)-2-(2-carboxy-2-propoxyimino)acetamido]-3-[(E)-3-(2-methylthio-3-thiazolio)-1-propen-1-yl]-3-cephem-4-carboxylate] was tested, and the MIC [1] was 1.8 µg/mL (≈ 2.88 µM), the MIC [2] was 5.4 µg/mL (≈ 8.64 µM) and the MIC [3] was 0.021 µg/mL (≈ 0.0336 µM). For the same compound, the MIC [4] was 0.22 µg/mL (≈ 0.352 µM), the MIC [5] was 0.2 µg/mL (≈ 0.32 µM) and the MIC [6] was 3.5 µg/mL (≈ 5.6 µM).
`C[N+]1(C/C=C/C2=C(C(=O)[O-])N3C(=O)C(NC(=O)/C(=N\OC4(C(=O)O)CCC4)c4csc(N)n4)C3SC2)CCCC1` (stereo not shown) [Compound I-5A] showed an MIC [1] of 1.8 µg/mL (≈ 3.05 µM), an MIC [2] of 4.7 µg/mL (≈ 7.96 µM) and an MIC [3] of 0.038 µg/mL (≈ 0.0643 µM). The MIC [4] was 0.23 µg/mL (≈ 0.389 µM), the MIC [5] was 0.26 µg/mL (≈ 0.44 µM) and the MIC [6] was 2.6 µg/mL (≈ 4.4 µM).
Compound `Nc1ccc[n+](C/C=C/C2=C(C(=O)[O-])N3C(=O)C(NC(=O)/C(=N\OC4(C(=O)O)CCC4)c4csc(N)n4)[C@H]3SC2)c1` (stereo partly shown) [Compound I-5E, 7-[(Z)-2-(2-Aminothiazol-4-yl)-2-(1-carboxycyclobut-1-oxyimino)acetamido]-3-[(E)-3-(3-amino-1-pyridinio)-1-propen-1-yl]-3-cephem-4-carboxylate] has an MIC [1] of 1.2 µg/mL (≈ 2 µM), an MIC [2] of 3.1 µg/mL (≈ 5.17 µM) and an MIC [3] of 0.016 µg/mL (≈ 0.0267 µM). The MIC [5] was 0.15 µg/mL (≈ 0.25 µM) and the MIC [6] was 1.9 µg/mL (≈ 3.17 µM).
Compound `CSc1scc[n+]1C/C=C/C1=C(C(=O)[O-])N2C(=O)C(NC(=O)/C(=N\OC3(C(=O)O)CCC3)c3csc(N)n3)[C@H]2SC1` (stereo partly shown) [Compound I-5G, 7-[(Z)-2-(2-Aminothiazol-4-yl)-2-(1-carboxycyclobut-1-oxyimino)acetamido]-3-[(E)-3-(2-methylthio-3-thiazolio)-1-propen-1-yl]-3-cephem-4-carboxylate] has an MIC [1] of 0.84 µg/mL (≈ 1.32 µM), an MIC [2] of 2.8 µg/mL (≈ 4.4 µM) and an MIC [3] of 0.014 µg/mL (≈ 0.022 µM). The MIC [5] was 0.13 µg/mL (≈ 0.204 µM) and the MIC [6] was 1.9 µg/mL (≈ 2.98 µM).
